Data on two sequences can be found in publication PMC6315844, “Two Novel Multi-Functional Peptides from Meat and Visceral Mass of Marine Snail Neptunea arthritica cumingii and Their Activities In Vitro and In Vivo” (Marine Drugs, 2018).

The target of this assay is T1, angiotensin-converting enzyme (from the rabbit lung) (Oryctolagus cuniculus, UniProt P12822).
T1 construct: angiotensin-converting enzyme (0.25 U·mL^−1, from the rabbit lung); purchased Sigma-Aldrich (Shanghai, China); host or cells: rabbit lung (tissue-derived)
T1 sequence (P12822 34-1310): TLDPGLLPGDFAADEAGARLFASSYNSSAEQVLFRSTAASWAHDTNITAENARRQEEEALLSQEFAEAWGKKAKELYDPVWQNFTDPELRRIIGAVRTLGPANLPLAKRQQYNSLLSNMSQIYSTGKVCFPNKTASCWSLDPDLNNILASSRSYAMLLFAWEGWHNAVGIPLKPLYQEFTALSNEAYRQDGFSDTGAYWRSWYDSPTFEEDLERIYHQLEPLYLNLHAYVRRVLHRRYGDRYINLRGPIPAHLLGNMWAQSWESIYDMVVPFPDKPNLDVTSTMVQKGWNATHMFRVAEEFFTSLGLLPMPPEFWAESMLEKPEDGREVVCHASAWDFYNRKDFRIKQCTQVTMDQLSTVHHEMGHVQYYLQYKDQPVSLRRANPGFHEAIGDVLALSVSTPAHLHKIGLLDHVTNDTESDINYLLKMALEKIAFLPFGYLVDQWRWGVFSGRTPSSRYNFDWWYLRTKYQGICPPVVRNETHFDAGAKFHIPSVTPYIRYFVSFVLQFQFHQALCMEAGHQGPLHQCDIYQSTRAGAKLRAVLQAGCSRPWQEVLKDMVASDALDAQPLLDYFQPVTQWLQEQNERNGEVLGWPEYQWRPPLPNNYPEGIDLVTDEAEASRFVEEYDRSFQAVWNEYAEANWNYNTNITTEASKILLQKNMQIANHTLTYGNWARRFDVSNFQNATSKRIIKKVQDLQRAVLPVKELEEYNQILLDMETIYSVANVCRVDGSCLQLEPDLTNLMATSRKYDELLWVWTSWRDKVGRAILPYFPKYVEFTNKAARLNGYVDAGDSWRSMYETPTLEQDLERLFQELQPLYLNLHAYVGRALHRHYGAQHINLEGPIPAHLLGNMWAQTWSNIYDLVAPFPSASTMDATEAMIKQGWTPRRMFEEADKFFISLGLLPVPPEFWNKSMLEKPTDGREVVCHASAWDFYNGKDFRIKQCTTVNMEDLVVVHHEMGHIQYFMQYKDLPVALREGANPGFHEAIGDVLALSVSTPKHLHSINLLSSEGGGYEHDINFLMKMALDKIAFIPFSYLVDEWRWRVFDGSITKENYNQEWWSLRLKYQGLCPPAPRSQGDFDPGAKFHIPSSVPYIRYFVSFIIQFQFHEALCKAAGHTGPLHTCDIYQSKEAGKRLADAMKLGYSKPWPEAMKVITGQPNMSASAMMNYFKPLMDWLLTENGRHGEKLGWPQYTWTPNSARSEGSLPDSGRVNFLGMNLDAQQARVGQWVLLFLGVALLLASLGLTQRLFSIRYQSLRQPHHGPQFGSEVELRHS
The assay is described as follows: ACE-inhibitory activity. It is filed as biochemical. As to conditions: for ACE-Inhibitory Activity (%): fractions purified from M-F and VM-F using HILIC, all at the same concentration (not given), n = 3, mean ± SD; for EC50: natural purified peptide, Figure 3a, tests repeated three times, read-out: EC50 values of active peptides: ACE. From the text: DPPH, angiotensin-converting enzyme (0.25 U·mL^−1, from the rabbit lung), N-hippuryl-His-Leu hydrate (HHL), hippuric acid, and amino acid standards were purchased from Sigma-Aldrich (Shanghai, China). α-Glucosidase protease (50 U/mg, from yeast), α-amylase protease (50 U/mg, from Bacillus subtilis), acarbose, 4-nitrophenyl-β-D-galactopyranoside, 6-aminoquinolyl-N-hydroxysuccinimidyl carbamate (AQC), ribonuclease (13,700 Da, from the bovine pancreas), aprotinin hydrochloride (6511 Da, from the bovine lung), angiotensin II (1046 Da), and L-serine (105 Da) were purchased from Yuanye Biological Technology Co. (Shanghai, China). Trypsin (250 U/mg), pepsin (250 U/mg), Sephadex G25 gel, nifedipine, and vitamin C were purchased from Solarbio (Beijing, China). Transgenic zebrafish Tg (krt4:NTR-hKikGR)^cy17 are maintained in our lab. All chemicals and reagents used for HPLC were of chromatographic grade and other chemicals and reagents were of analytical grade.
ACE-inhibitory activity was measured according to the methods of Chen et al.. Nifedipine was used as a positive control. Results were reported as EC50 values.

No end group written: not given here.

As for “YIAEDAER [VM-P7, Tyr-Ile-Ala-Glu-Asp-Ala-Glu-Arg]”, the “ACE-Inhibitory Activity (%)” value amounted to 74.95 ± 1.24% and the EC50 (in general, the concentration at which the effect is half-maximal) stood at 236 µM.

Regarding “YSQLENEFDR [M-P6, Tyr-Ser-Gln-Leu-Glu-Asn-Glu-Phe-Asp-Arg]”, the “ACE-Inhibitory Activity (%)” value came out at 84.81 ± 0.35% and the EC50 worked out at 75.6 µM.
